Assay results from PMC10518717, “High-Throughput Screening and Proteomic Characterization of Compounds Targeting Myeloid-Derived Suppressor Cells” (Molecular & Cellular Proteomics : MCP, 2023).
Blank lines part the entries; values can stand above or below the compound they belong to.

Key:
Arginase = molecular target: T1, Arginase (Mus musculus, UniProt Q61176); assay: Arginase activity assay (Arginase Activity Assay Kit) in cell lysates; format: biochemical; conditions: NUP-MDSC lysates; titrated amounts of inhibitor
T1 construct: endogenous in cells; host or cells: mouse NUP cells / NUP-MDSC (lysate)
T1 sequence (Q61176 1-323): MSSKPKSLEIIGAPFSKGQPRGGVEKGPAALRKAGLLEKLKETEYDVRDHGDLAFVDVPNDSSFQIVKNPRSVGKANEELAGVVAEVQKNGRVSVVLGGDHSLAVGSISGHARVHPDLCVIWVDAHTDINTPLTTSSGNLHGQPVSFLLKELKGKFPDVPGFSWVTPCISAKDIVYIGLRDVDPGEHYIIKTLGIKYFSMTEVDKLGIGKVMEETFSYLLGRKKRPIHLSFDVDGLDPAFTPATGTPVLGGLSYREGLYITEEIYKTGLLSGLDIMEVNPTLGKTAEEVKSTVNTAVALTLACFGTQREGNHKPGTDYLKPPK
Method: Arginase catalyzes the conversion of arginine to urea and ornithine. The urea produced specifically reacts with the assay substrate to generate a colored product, proportional to the arginase activity. Cells were washed with PBS and lysed for 10 min in 10 mM Tris–HCl, pH7.4 containing protease inhibitors and 0.4% (w/v) Triton X-100. Lysates were centrifuged at 13,000g for 10 min, and supernatant was used for analysis. Arginase activity was analyzed using the Arginase Activity Assay Kit (Sigma, MAK112) according to manufacturer’s protocol. Lysates were untreated or treated with titrated amounts of the arginase inhibitor (3R,4S)-3-amino-1-[(2S)-2-aminopropanoyl]-4-(3-boronopropyl)pyrrolidine-3-carboxylic acid. Absorbance (430 nm) was analyzed in an Infinite M1000 Pro (Tecan) plate reader after 120 min of incubation. Arginase activity was determined as follows: arginase activity = absorbance-blank/(urea standard-H2O Control)∗(1 mM∗reaction volume ∗10³/(incubation time in min∗sample volume (μL))). One unit of arginase is the amount of enzyme that will convert 1.0 μmole of L-arginine to ornithine and urea per minute at pH 9.5 and 37 °C.

A594 cells = assay: CellROX-based detection of ROS levels; format: cell-based; conditions: 48 h treatment (compound 2 7.8 μM, N-acetyl-cysteine 300 μM), then 200 μM tert-butyl hydroperoxide 2 h; compared to compound 3 10 μM
Method: A594 cells were maintained in Fluorobrite DMEM (Thermo Fisher Scientific) supplemented with GlutaMAX (Thermo Fisher Scientific) and 10% fetal bovine serum (PAN Biotech). Cells were seeded onto a 24-well microplate (Ibidi) and treated with DMSO, 7.8 μM compound 2 (3x EC50), 10 μM compound 3, or 300 μM N-acetyl-cysteine for 48 h. After the treatment, cells were incubated with 200 μM tert-butyl hydroperoxide (Sigma) for 2 h to stimulate ROS production. Then, cells were stained with CellROX deep red (Thermo Fisher Scientific) following the manufacturer’s guidelines. CellROX deep red signal was measured on a Leica DMI 6000 B epifluorescent microscope with a Cy5 filter set. Mean signal intensity per cell was determined from >100 cells per condition from three independent treatments.
For the CellROX assay, three independent treatments were conducted. From each, the mean signal intensity per cell was determined for >100 cells per condition. The statistical significance was calculated by one-way ANOVA followed by a post hoc Tukey’s multiple comparisons test using GraphPad Prism (v.8.3.0).

NUP-MDSC = assay: Global proteome expression profiling of compound-treated NUP-MDSC (TMT LC-MS/MS); format: cell-based, mouse; conditions: 72 h; for log2 FC Moce_300/DMSO: 300 nM
Method: After treatments, medium was removed, cells were washed twice with PBS, and the cell pellets were further subjected to proteomic sample preparation.
The cell pellet was reconstituted in 2% SDS in 50 mM Tris–HCl pH 7.5 and lysed by heating to 95 °C for 10 min. One microliter of 100% TFA was added to each sample to hydrolyze DNA, and the pH was subsequently adjusted to 8.5 with 3 M Tris solution. Disulfide bonds were reduced with 10 mM DTT for 45 min at 37 °C, followed by alkylation of cysteines with 55 mM CAA for 30 min at room temperature. Prior to tryptic digestion, the detergent was removed from lysates by SP3 cleanup on an Agilent BRAVO system (Agilent Technologies), following the protocol first described by Hughes et al. ([34]). Briefly, lysate containing 200 μg of protein was mixed with SP3 beads, and proteins were precipitated onto a 50:50 mixture of Sera-Mag Speed Bead types A and B (Thermo Fisher Scientific) in 58% acetonitrile. Beads were washed three times with 80% ethanol in water and once with acetonitrile. Tryptic digest was performed in 100 μl of digestion buffer (2 mM CaCl2 in 25 mM Hepes, pH 8.5) with a 1:50 enzyme-to-protein ratio. Bead-precipitated proteins were digested at 37 °C overnight. On the next day, the supernatant of each sample was transferred to a new well and vacuum dried.
Dried peptides were reconstituted in water and labeled with the respective TMT10plex-labeling reagent as described previously ([35]) with a protein to tandem mass tag (TMT) reagent ratio of 1:2. Labeled samples were pooled, vacuum dried, and reconstituted in 0.1% formic acid (FA) prior to desalting on SepPAC50 columns (waters corp.). Peptides were fractionated using a Dionex Ultra 3000 HPLC system with a Waters XBridge BEH130 C18 3.5 um 2.1 × 250 mm column as described previously ([36]). Ninety-six fractions were collected and pooled to 48. For the full proteome analysis, one fifth of each fraction was transferred to a new 96-well plate and both plates were vacuum dried. For the phosphopeptide analysis, dried peptides were reconstituted in 55 μl 0.1% TFA in 30% ACN, pooled from 48 to 12 fractions, and mixed with 70 μl priming buffer (0.1% TFA, 100% ACN). Phosphopeptides were enriched from each of the 12 fractions using Fe(III)-IMAC-NTA cartridges on the AssayMAP BRAVO (Agilent Technologies) platform as described previously ([36]). Phosphopeptides were eluted with 60 μl 1% ammonia, vacuum dried, and stored at −20 °C prior to LC-MS/MS analysis.
The Fusion Lumos was operated in data-dependent acquisition and positive ionization mode. Samples were measured employing a MS3 method. In brief, full scan MS1 spectra were recorded in the orbitrap (OT) from 360 to 1560 m/z at 60,000 resolution using an automatic gain control (AGC) target value of 4e5 charges and a maximum injection time (maxIT) of 50 ms. Iontrap-MS2 spectra for peptide identification were acquired using higher energy collision dissociation (HCD) fragmentation with 32% normalized collision energy (NCE), an isolation window of 0.6 m/z, and an AGC target value of 1.2e4 charges. To obtain quantitative information on TMT reporter ions, each peptide precursor was fragmented again as for MS2 analysis followed by synchronous selection of the up to eight most intense peptide fragments in the iontrap ([37]) and further fragmentation via HCD using a NCE of 55%. The MS3 scan was recorded in the OT at 50,000 resolution (scan range 100–1000 m/z, isolation window of 1.2 m/z, AGC of 1e5 charges, maxIT of 86 ms). The cycle time was 1.2 s, and the dynamic exclusion lasted for 50 s.
Peptide, protein, and phosphorylation site identification and quantification were performed with MaxQuant software (v. 1.6.3.3, https://www.maxquant.org/) with standard settings for reporter ion MS3 unless described otherwise ([39]). Isotope impurities of the TMT lot were specified to allow MaxQuant the automated correction of TMT intensities. […]

NUP-MDSC cell lysate [1] = molecular target: T2, NUP-MDSC cell lysate (Mus musculus, UniProt G5E8Z3); assay: Chemoproteomic competition pulldown assay (iCor/iEnt affinity matrix), proteome-wide; format: binding; conditions: protein 2310050C09Rik (G5E8Z3)
T2 construct: endogenous in cells; host or cells: mouse NUP-MDSC (lysate)
Source text: (§1) Targets of the inhibitors were annotated manually.

NUP-MDSC cell lysate [2] = molecular target: T3, NUP-MDSC cell lysate (Mus musculus, UniProt Q8WUR0); assay: as above; format: binding; conditions: protein 1600014C10Rik (Protein C19orf12 homolog)
T3 construct: endogenous in cells; host or cells: mouse NUP-MDSC (lysate)
T3 sequence (Q8WUR0 1-141): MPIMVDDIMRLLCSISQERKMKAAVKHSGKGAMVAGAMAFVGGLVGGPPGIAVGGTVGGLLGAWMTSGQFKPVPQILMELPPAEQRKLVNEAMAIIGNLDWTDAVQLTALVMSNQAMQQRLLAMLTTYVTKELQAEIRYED
Source text: as §1

T2 sequence (G5E8Z3 1-280): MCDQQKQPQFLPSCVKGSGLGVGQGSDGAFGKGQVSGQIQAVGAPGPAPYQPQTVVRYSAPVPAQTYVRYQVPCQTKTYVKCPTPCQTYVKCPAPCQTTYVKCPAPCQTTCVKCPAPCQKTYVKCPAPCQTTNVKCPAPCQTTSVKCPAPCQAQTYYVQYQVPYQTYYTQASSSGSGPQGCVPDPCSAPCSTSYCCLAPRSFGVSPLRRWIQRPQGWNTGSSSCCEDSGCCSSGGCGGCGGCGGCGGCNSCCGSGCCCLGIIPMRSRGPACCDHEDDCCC

arginase activity (Arginase): dose dependently decreased
Structure (SMILES): C[C@H](N)C(=O)N1C[C@H](CCCB(O)O)[C@](N)(C(=O)O)C1 [arginase inhibitor, (3R,4S)-3-amino-1-[(2S)-2-aminopropanoyl]-4-(3-boronopropyl)pyrrolidine-3-carboxylic acid]

Structure (SMILES): CC(=O)N[C@@H](CS)C(=O)O [N-acetyl-cysteine]
CellROX Deep Red fluorescence (amount of ROS in a cell) (A594 cells): decreased significantly

Intensity 10nM (NUP-MDSC cell lysate [1]; Mocetinostat 10nM): 25441000
LFQ intensity 10nM (NUP-MDSC cell lysate [1]; Mocetinostat 10nM): 9384100
Intensity 30nM (NUP-MDSC cell lysate [1]; Mocetinostat 30nM): 13403000
LFQ intensity 30nM (NUP-MDSC cell lysate [1]; Mocetinostat 30nM): 6282200
Intensity 100nM (NUP-MDSC cell lysate [1]; Mocetinostat 100nM): 19942000
LFQ intensity 100nM (NUP-MDSC cell lysate [1]; Mocetinostat 100nM): 8726600
Intensity 300nM (NUP-MDSC cell lysate [1]; Mocetinostat 300nM): 13729000
LFQ intensity 300nM (NUP-MDSC cell lysate [1]; Mocetinostat 300nM): 7913100
Intensity 1000nM (NUP-MDSC cell lysate [1]; Mocetinostat 1000nM): 4275900
LFQ intensity 1000nM (NUP-MDSC cell lysate [1]; Mocetinostat 1000nM): 0
Intensity 3000nM (NUP-MDSC cell lysate [1]; Mocetinostat 3000nM): 53551000
LFQ intensity 3000nM (NUP-MDSC cell lysate [1]; Mocetinostat 3000nM): 32269000
Intensity 30000nM (NUP-MDSC cell lysate [1]; Mocetinostat 30000nM): 25441000
LFQ intensity 30000nM (NUP-MDSC cell lysate [1]; Mocetinostat 30000nM): 13756000
Intensity 10nM (NUP-MDSC cell lysate [2]; Mocetinostat 10nM): 53804000
LFQ intensity 10nM (NUP-MDSC cell lysate [2]; Mocetinostat 10nM): 30216000
Intensity 30nM (NUP-MDSC cell lysate [2]; Mocetinostat 30nM): 64537000
LFQ intensity 30nM (NUP-MDSC cell lysate [2]; Mocetinostat 30nM): 37744000
Intensity 100nM (NUP-MDSC cell lysate [2]; Mocetinostat 100nM): 59266000
LFQ intensity 100nM (NUP-MDSC cell lysate [2]; Mocetinostat 100nM): 38158000
Intensity 300nM (NUP-MDSC cell lysate [2]; Mocetinostat 300nM): 53823000
LFQ intensity 300nM (NUP-MDSC cell lysate [2]; Mocetinostat 300nM): 43828000
Intensity 1000nM (NUP-MDSC cell lysate [2]; Mocetinostat 1000nM): 51502000
LFQ intensity 1000nM (NUP-MDSC cell lysate [2]; Mocetinostat 1000nM): 40150000
Intensity 3000nM (NUP-MDSC cell lysate [2]; Mocetinostat 3000nM): 76226000
LFQ intensity 3000nM (NUP-MDSC cell lysate [2]; Mocetinostat 3000nM): 38853000
Intensity 30000nM (NUP-MDSC cell lysate [2]; Mocetinostat 30000nM): 39641000
LFQ intensity 30000nM (NUP-MDSC cell lysate [2]; Mocetinostat 30000nM): 39494000
Structure (SMILES): Nc1ccccc1NC(=O)c1ccc(CNc2nccc(-c3cccnc3)n2)cc1 [mocetinostat]
protein expression of Il1a, Il1b, and Il1rn (NUP-MDSC; 30 and 300 nM): dose-dependently upregulated
protein level of Cxcr3, Ccl9, and Ccr5 (NUP-MDSC; 30 and 300 nM, dose-dependent manner): increased
log2 FC Moce_300/DMSO (NUP-MDSC; protein Cask): -0.508
log2 FC Moce_300/DMSO (NUP-MDSC; protein Hsf1): -0.2561
log2 FC Moce_300/DMSO (NUP-MDSC; protein Inpp5j): 0.2433
log2 FC Moce_300/DMSO (NUP-MDSC; protein Magohb;Magoh): -0.03048
